In patent US8716226B2, “3,5 phenyl-substituted beta amino acid derivatives as integrin antagonists” (Saint Louis University, priority 2012, dated 2014):

Experiments:
[1] = target: T1, recombinant human biotinylated integrin αvβ8 (Homo sapiens, UniProt P06756+P26012); test: Solid phase receptor assay for αvβ8 function; conditions: purified integrin binding to LAP-coated plate
T1 construct: biotin (biotinylated heterodimer); purchased R&D Systems
Procedure: Solid Phase Receptor Assay for αvβ8 Function.
Purified human LAP protein (R&D Systems, Inc) diluted to 0.5 μg/ml in TBS buffer (25 mM Tris 7.4, 137 mM NaCl, 2.7 mM KCl, 1 mM CaCl2, 1 mM MgCl2, 1 mM MnCl2) was added to wells (100 μl/well) of a 96-well half-well transparent microtiter plate (Costar 3690), and incubated overnight at 4° C. Wells were washed 3 times with 150 μl TBS, and 200 μl of blocking buffer (TBS with 1% bovine serum albumin) were added. The plate was incubated for 1 hr at 37° C., and then washed 3× with TBS/0.1% bovine serum albumin. Purified recombinant human biotinylated integrin αvβ8 (R&D Systems) was diluted to 0.1 μg/ml in TBS/0.1% bovine serum albumin. Compounds were diluted into the integrin solution and then 50 μl was added to empty wells of the washed LAP-coated plate, according to a standard template, with each sample repeated in triplicate. After incubation for one hour at room temperature, the plate was washed 3× with 150 μl of TBS/0.1% BSA. 50 μl of streptavidin-conjugated horseradish peroxidase (R&D Systems) was added to the wells, and the plate incubated for 20 min at room temperature. […] Plates were read by colorimetric detection at 650 nm wavelength using a Tecan Safire II plate reader. Concentration-response curves were constructed by non-linear regression (best fit) analysis, and IC50 values were calculated for each compound.

[2] = tested on: TGFβ activation by recombinant human integrin αvβ6; test: Integrin-mediated TGFβ activation assay (MLEC-PAI/L luciferase reporter co-cultured with SW480-β6 cells); type: cell-based; conditions: MLEC-PAI/L reporter cells co-cultured overnight with SW480-β6 cells
Procedure: Integrin-Mediated TGFβ Activation Assay.
Mink lung epithelial cells stably transfected with a luciferase reporter driven by a portion of the TGFβ-responsive Plasminogen Activator Inhibitor promoter (MLEC-PAI/L) were seeded at a density of 25,000/well in a white-walled, clear-bottom 96-well culture plate (Costar 3610) in 100 μL of assay medium (phenol red-free DMEM+10% fetal bovine serum). The cells were incubated for one hour in ambient air at room temperature, then at 37° C. for three hours in 5% CO2 to allow cell attachment. The medium was aspirated from the wells and 50 μL of compound diluted to 2× in assay medium was applied to each well, followed by 50 μL of assay medium containing 25,000 SW480-β6 cells, a cell line which stably overexpresses recombinant human integrin αvβ6. […] Following overnight co-culture incubation under standard conditions, the assay medium was aspirated from the wells, and a foil seal was applied to the bottom of the plate to prevent cross-detection of luminescence between the sample wells. […] The assay plate was then read immediately on a luminometer. Data was analyzed by first subtracting the mean substrate blank value from all samples, then dividing by the mean value of the MLEC-PAI/L baseline group to yield a “relative luciferase activity” value (RLA). […]

T1 sequence (P06756 31-889 limits assumed): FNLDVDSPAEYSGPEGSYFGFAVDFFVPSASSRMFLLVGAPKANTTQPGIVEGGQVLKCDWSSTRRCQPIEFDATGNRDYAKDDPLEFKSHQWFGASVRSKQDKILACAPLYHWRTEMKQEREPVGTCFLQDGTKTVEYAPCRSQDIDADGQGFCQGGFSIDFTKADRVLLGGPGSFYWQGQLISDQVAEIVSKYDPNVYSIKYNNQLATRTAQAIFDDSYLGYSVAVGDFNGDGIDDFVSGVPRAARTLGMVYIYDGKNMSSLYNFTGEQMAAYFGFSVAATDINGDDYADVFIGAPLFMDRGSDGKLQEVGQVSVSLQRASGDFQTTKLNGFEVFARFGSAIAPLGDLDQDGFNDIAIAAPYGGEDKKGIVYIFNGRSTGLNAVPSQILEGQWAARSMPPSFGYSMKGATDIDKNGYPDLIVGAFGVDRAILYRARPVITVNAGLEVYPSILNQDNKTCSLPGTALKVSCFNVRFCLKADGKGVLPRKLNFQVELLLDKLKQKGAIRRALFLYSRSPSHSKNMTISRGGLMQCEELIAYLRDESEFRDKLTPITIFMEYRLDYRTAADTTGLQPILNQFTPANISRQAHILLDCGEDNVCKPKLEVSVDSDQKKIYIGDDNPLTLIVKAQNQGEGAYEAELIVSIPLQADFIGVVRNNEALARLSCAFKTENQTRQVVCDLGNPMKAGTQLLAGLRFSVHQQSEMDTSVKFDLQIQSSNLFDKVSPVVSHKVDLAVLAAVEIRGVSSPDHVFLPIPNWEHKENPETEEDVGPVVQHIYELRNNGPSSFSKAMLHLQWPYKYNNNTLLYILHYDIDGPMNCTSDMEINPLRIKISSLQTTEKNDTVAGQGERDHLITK
T1 sequence (P06756 891-992 partner limits assumed): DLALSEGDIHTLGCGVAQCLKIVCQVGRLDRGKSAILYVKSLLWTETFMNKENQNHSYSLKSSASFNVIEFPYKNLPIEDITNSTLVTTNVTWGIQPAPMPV
T1 sequence (P26012 43-684 limits assumed): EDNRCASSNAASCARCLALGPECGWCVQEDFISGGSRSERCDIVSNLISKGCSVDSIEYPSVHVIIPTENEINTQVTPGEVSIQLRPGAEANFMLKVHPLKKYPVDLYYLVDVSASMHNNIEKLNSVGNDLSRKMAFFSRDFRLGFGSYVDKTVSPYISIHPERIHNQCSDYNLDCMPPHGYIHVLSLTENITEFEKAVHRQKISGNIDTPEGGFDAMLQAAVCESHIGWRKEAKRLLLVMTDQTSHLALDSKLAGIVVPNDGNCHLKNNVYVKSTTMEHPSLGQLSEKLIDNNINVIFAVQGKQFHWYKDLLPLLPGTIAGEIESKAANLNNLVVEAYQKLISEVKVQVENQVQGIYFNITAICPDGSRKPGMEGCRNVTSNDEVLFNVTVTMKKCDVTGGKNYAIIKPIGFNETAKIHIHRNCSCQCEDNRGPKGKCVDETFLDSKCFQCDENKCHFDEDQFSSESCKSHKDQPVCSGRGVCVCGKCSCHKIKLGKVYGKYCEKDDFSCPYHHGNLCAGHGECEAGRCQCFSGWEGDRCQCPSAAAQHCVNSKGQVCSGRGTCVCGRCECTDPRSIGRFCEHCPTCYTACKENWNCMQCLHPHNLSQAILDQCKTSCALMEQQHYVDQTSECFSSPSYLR

CC(C)(C)c1cc(Br)cc([C@H](CC(=O)O)NC(=O)CNC(=O)c2cc(O)cc(NC3=NCC(O)CN3)c2)c1 (stereo partly drawn) [Example 1, (3S)—N-[3-hydroxy-5-[(1,4,5,6-tetrahydro-5-hydroxy-2-pyrimidinyl)amino]benzoyl]glycyl-3-(3-bromo-5-tert-butylphenyl)-β-alanine]
IC50 [1]: 0.23 nM
IC50 [2]: 564 nM
